{
  "source": "patent US8802597B2",
  "about": "“Herbicidal pyrimidines” (E I du Pont de Nemours and Company, priority 2003, dated 2014)",
  "type_in_all_cases": "in vivo",
  "key": {"[1]": {"test_system": "rice flatsedge (Cyperus iria)", "assay": "Test E flooded paddy water application", "details": "Flood, 21 days, scale 0 to 100 (0 no effect, 100 complete control)", "procedure,_shortened": "(§1)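 Greenhouse pots of Tama silt loam with weeds and rice at 2.0–2.5-leaf stage, flooded to 3 cm; compounds applied directly into paddy water, depth maintained. Visual rating versus untreated controls after 21 days, 0 (no effect) to 100 (complete control); 29.5/26.7 °C, 16-h photoperiod.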"}, "[2]": {"test_system": "transplanted rice seedlings (Oryza sativa cv. ‘Japonica-M202’)", "assay": "Test E flooded paddy water application", "details": "Flood, 21 days, scale 0 to 100 (0 no effect, 100 complete control)", "procedure,_shortened": "as §1"}, "[3]": {"test_system": "late watergrass (Echinochloa oryzicola)", "assay": "Test E flooded paddy water application", "details": "Flood, 21 days, scale 0 to 100 (0 no effect, 100 complete control)", "procedure,_shortened": "as §1"}, "[4]": {"test_system": "junglerice (Echinochloa colona)", "assay": "Test E flooded paddy water application", "details": "Flood, 21 days, scale 0 to 100 (0 no effect, 100 complete control)", "procedure,_shortened": "as §1"}, "[5]": {"test_system": "early watergrass (Echinochloa oryzoides)", "assay": "Test E flooded paddy water application", "details": "Flood, 21 days, scale 0 to 100 (0 no effect, 100 complete control)", "procedure,_shortened": "as §1"}, "[6]": {"test_system": "ducksalad (Heteranthera limosa)", "assay": "Test E flooded paddy water application", "details": "Flood, 21 days, scale 0 to 100 (0 no effect, 100 complete control)", "procedure,_shortened": "as §1"}, "[7]": {"test_system": "purple redstem (Ammannia coccinea)", "assay": "Test E flooded paddy water application", "details": "Flood, 21 days, scale 0 to 100 (0 no effect, 100 complete control)", "procedure,_shortened": "as §1"}, "[8]": {"test_system": "water seeded rice seedlings (Oryza sativa cv. ‘Japonica-M202’)", "assay": "Test E flooded paddy water application", "details": "Flood, 21 days, scale 0 to 100 (0 no effect, 100 complete control)", "procedure,_shortened": "as §1"}, "[9]": {"test_system": "bearded (brdd.) sprangletop (Leptochloa fusca ssp. fascicularis)", "assay": "Test E flooded paddy water application", "details": "Flood, 21 days, scale 0 to 100 (0 no effect, 100 complete control)", "procedure,_shortened": "as §1"}, "[10]": {"test_system": "barnyardgrass (Echinochloa crus-galli)", "assay": "Test E flooded paddy water application", "details": "Flood, 21 days, scale 0 to 100 (0 no effect, 100 complete control)", "procedure,_shortened": "as §1"}, "[11]": {"test_system": "smallflower umbrella sedge (Cyperus difformis)", "assay": "Test E flooded paddy water application", "details": "Flood, 21 days, scale 0 to 100 (0 no effect, 100 complete control)", "procedure,_shortened": "as §1"}, "[12]": {"test_system": "crabgrass (Digitaria sanguinalis)", "assay": "Test A pre/postemergence", "procedure,_shortened": "(§2)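 Soil: loam blended with sand. Formulation: non-phytotoxic solvent mixture with surfactant. Timing: preemergence soil spray plus concurrent postemergence spray (plants 2–10 cm, 1–2 leaves). Readout: visual injury versus untreated controls at ~10 days, 0–100.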"}, "[13]": {"test_system": "morningglory (Ipomoea spp.)", "assay": "Test A pre/postemergence", "procedure,_shortened": "as §2"}, "[14]": {"test_system": "giant foxtail (Setaria faberi)", "assay": "Test A pre/postemergence", "procedure,_shortened": "as §2"}, "[15]": {"test_system": "redroot pigweed (Amaranthus retroflexus)", "assay": "Test A pre/postemergence", "procedure,_shortened": "as §2"}, "[16]": {"test_system": "velvetleaf (Abutilon theophrasti)", "assay": "Test A pre/postemergence", "procedure,_shortened": "as §2"}, "[17]": {"test_system": "barnyardgrass (Echinochloa crus-galli)", "assay": "Test A pre/postemergence", "procedure,_shortened": "as §2"}, "[18]": {"details": "Postemergence, 125 g ai/ha, 0 to 100 scale (0 no effect, 100 complete control)"}, "[19]": {"details": "Postemergence, 500 g ai/ha, 0 to 100 scale (0 no effect, 100 complete control)"}, "[20]": {"details": "Preemergence, 125 g ai/ha, 0 to 100 scale where 0 is no effect and 100 is complete control, approximately ten days"}, "[21]": {"details": "Preemergence, 500 g ai/ha, 0 to 100 scale where 0 is no effect and 100 is complete control, approximately ten days"}},
  "data": [
    {"smiles": "COC(=O)c1nc(-c2ccc(C)cc2)nc(N)c1Cl", "note": "[Compound 84]", "values": [
      {"measurement": "Flatsedge, Rice plant response rating", "setting": "[1]; 32 g ai/ha", "result": 35},
      {"measurement": "Flatsedge, Rice plant response rating", "setting": "[1]; 64 g ai/ha", "result": 60},
      {"measurement": "Flatsedge, Rice plant response rating", "setting": "[1]; 125 g ai/ha", "result": 60},
      {"measurement": "Flatsedge, Rice plant response rating", "setting": "[1]; 250 g ai/ha", "result": 80},
      {"measurement": "Plant response rating, Flatsedge, Rice", "setting": "[1]; 16 g ai/ha", "result": 25},
      {"measurement": "Rice, Transplanted plant response rating", "setting": "[2]; 32 g ai/ha", "result": 0},
      {"measurement": "Rice, Transplanted plant response rating", "setting": "[2]; 64 g ai/ha", "result": 0},
      {"measurement": "Rice, Transplanted plant response rating", "setting": "[2]; 125 g ai/ha", "result": 0},
      {"measurement": "Rice, Transplanted plant response rating", "setting": "[2]; 250 g ai/ha", "result": 20},
      {"measurement": "Plant response rating, Rice, Transplanted", "setting": "[2]; 16 g ai/ha", "result": 0},
      {"measurement": "Watergrass, Late plant response rating", "setting": "[3]; 32 g ai/ha", "result": 0},
      {"measurement": "Watergrass, Late plant response rating", "setting": "[3]; 64 g ai/ha", "result": 0},
      {"measurement": "Watergrass, Late plant response rating", "setting": "[3]; 125 g ai/ha", "result": 0},
      {"measurement": "Watergrass, Late plant response rating", "setting": "[3]; 250 g ai/ha", "result": 20},
      {"measurement": "Plant response rating, Watergrass, Late", "setting": "[3]; 16 g ai/ha", "result": 0},
      {"measurement": "Junglerice plant response rating", "setting": "[4]; 32 g ai/ha", "result": 0},
      {"measurement": "Junglerice plant response rating", "setting": "[4]; 64 g ai/ha", "result": 0},
      {"measurement": "Junglerice plant response rating", "setting": "[4]; 125 g ai/ha", "result": 50},
      {"measurement": "Junglerice plant response rating", "setting": "[4]; 250 g ai/ha", "result": 50},
      {"measurement": "Plant response rating, Junglerice", "setting": "[4]; 16 g ai/ha", "result": 0},
      {"measurement": "Watergrass, Early plant response rating", "setting": "[5]; 32 g ai/ha", "result": 0},
      {"measurement": "Watergrass, Early plant response rating", "setting": "[5]; 64 g ai/ha", "result": 10},
      {"measurement": "Watergrass, Early plant response rating", "setting": "[5]; 125 g ai/ha", "result": 20},
      {"measurement": "Watergrass, Early plant response rating", "setting": "[5]; 250 g ai/ha", "result": 30},
      {"measurement": "Plant response rating, Watergrass, Early", "setting": "[5]; 16 g ai/ha", "result": 0},
      {"measurement": "Ducksalad plant response rating", "setting": "[6]; 32 g ai/ha", "result": 100},
      {"measurement": "Ducksalad plant response rating", "setting": "[6]; 64 g ai/ha", "result": 100},
      {"measurement": "Ducksalad plant response rating", "setting": "[6]; 125 g ai/ha", "result": 100},
      {"measurement": "Ducksalad plant response rating", "setting": "[6]; 250 g ai/ha", "result": 100},
      {"measurement": "Plant response rating, Ducksalad", "setting": "[6]; 16 g ai/ha", "result": 100},
      {"measurement": "Redstem plant response rating", "setting": "[7]; 32 g ai/ha", "result": 20},
      {"measurement": "Redstem plant response rating", "setting": "[7]; 64 g ai/ha", "result": 20},
      {"measurement": "Redstem plant response rating", "setting": "[7]; 125 g ai/ha", "result": 70},
      {"measurement": "Redstem plant response rating", "setting": "[7]; 250 g ai/ha", "result": 100},
      {"measurement": "Plant response rating, Redstem", "setting": "[7]; 16 g ai/ha", "result": 0},
      {"measurement": "Rice, Water Seeded plant response rating", "setting": "[8]; 32 g ai/ha", "result": 0},
      {"measurement": "Rice, Water Seeded plant response rating", "setting": "[8]; 64 g ai/ha", "result": 0},
      {"measurement": "Rice, Water Seeded plant response rating", "setting": "[8]; 125 g ai/ha", "result": 0},
      {"measurement": "Rice, Water Seeded plant response rating", "setting": "[8]; 250 g ai/ha", "result": 30},
      {"measurement": "Plant response rating, Rice, Water Seeded", "setting": "[8]; 16 g ai/ha", "result": 0},
      {"measurement": "Sprangletop, Brdd. plant response rating", "setting": "[9]; 32 g ai/ha", "result": 0},
      {"measurement": "Sprangletop, Brdd. plant response rating", "setting": "[9]; 64 g ai/ha", "result": 0},
      {"measurement": "Sprangletop, Brdd. plant response rating", "setting": "[9]; 125 g ai/ha", "result": 0},
      {"measurement": "Sprangletop, Brdd. plant response rating", "setting": "[9]; 250 g ai/ha", "result": 40},
      {"measurement": "Plant response rating, Sprangletop, Brdd.", "setting": "[9]; 16 g ai/ha", "result": 0},
      {"measurement": "Barnyardgrass plant response rating", "setting": "[10]; 32 g ai/ha", "result": 0},
      {"measurement": "Barnyardgrass plant response rating", "setting": "[10]; 64 g ai/ha", "result": 0},
      {"measurement": "Barnyardgrass plant response rating", "setting": "[10]; 125 g ai/ha", "result": 20},
      {"measurement": "Barnyardgrass plant response rating", "setting": "[10]; 250 g ai/ha", "result": 85},
      {"measurement": "Plant response rating, Barnyardgrass", "setting": "[10]; 16 g ai/ha", "result": 0},
      {"measurement": "Sedge, Umbrella plant response rating", "setting": "[11]; 32 g ai/ha", "result": 80},
      {"measurement": "Sedge, Umbrella plant response rating", "setting": "[11]; 64 g ai/ha", "result": 80},
      {"measurement": "Sedge, Umbrella plant response rating", "setting": "[11]; 125 g ai/ha", "result": 90},
      {"measurement": "Sedge, Umbrella plant response rating", "setting": "[11]; 250 g ai/ha", "result": 100},
      {"measurement": "Plant response rating, Sedge, Umbrella", "setting": "[11]; 16 g ai/ha", "result": 70},
      {"measurement": "Plant response rating, Crabgrass", "setting": "[12]; [18]", "result": 0},
      {"measurement": "Plant response rating, Crabgrass", "setting": "[12]; [19]", "result": 10},
      {"measurement": "Plant response rating, Crabgrass", "setting": "[12]; [20]", "result": 0},
      {"measurement": "Plant response rating, Crabgrass", "setting": "[12]; [21]", "result": 15},
      {"measurement": "Plant response rating, Morningglory", "setting": "[13]; [18]", "result": 5},
      {"measurement": "Plant response rating, Morningglory", "setting": "[13]; [19]", "result": 20},
      {"measurement": "Plant response rating, Morningglory", "setting": "[13]; [20]", "result": 0},
      {"measurement": "Plant response rating, Morningglory", "setting": "[13]; [21]", "result": 0},
      {"measurement": "Plant response rating, Foxtail, Giant", "setting": "[14]; [18]", "result": 0},
      {"measurement": "Plant response rating, Foxtail, Giant", "setting": "[14]; [19]", "result": 20},
      {"measurement": "Plant response rating, Foxtail, Giant", "setting": "[14]; [20]", "result": 0},
      {"measurement": "Plant response rating, Foxtail, Giant", "setting": "[14]; [21]", "result": 20},
      {"measurement": "Plant response rating, Pigweed", "setting": "[15]; [18]", "result": 60},
      {"measurement": "Plant response rating, Pigweed", "setting": "[15]; [19]", "result": 65},
      {"measurement": "Plant response rating, Pigweed", "setting": "[15]; [20]", "result": 0},
      {"measurement": "Plant response rating, Pigweed", "setting": "[15]; [21]", "result": 80},
      {"measurement": "Plant response rating, Velvetleaf", "setting": "[16]; [18]", "result": 75},
      {"measurement": "Plant response rating, Velvetleaf", "setting": "[16]; [19]", "result": 90},
      {"measurement": "Plant response rating, Velvetleaf", "setting": "[16]; [20]", "result": 15},
      {"measurement": "Plant response rating, Velvetleaf", "setting": "[16]; [21]", "result": 70},
      {"measurement": "Plant response rating, Barnyardgrass", "setting": "[17]; [18]", "result": 55},
      {"measurement": "Plant response rating, Barnyardgrass", "setting": "[17]; [19]", "result": 80},
      {"measurement": "Plant response rating, Barnyardgrass", "setting": "[17]; [20]", "result": 0},
      {"measurement": "Plant response rating, Barnyardgrass", "setting": "[17]; [21]", "result": 25}
    ]}
  ]
}
